According to US20240238417A1, “METHODS OF PRODUCING TUMOR VACCINES AND USES THEREOF” (priority 2021, published 2024):

Key:
4T1 cells [1] = test: Third inoculation with 4T1 breast cancer cells in a gNO-treated CT26 immunized mouse; assay type: in vivo; settings: mouse treated with 25,000 ppm NO twice 15 minutes; third inoculation 30 days post the second
Protocol: Balb/c mouse was inoculated with 500,000 CT26 cells to the right flank. CT26 tumor was treated with 25,000 ppm NO for 15 minutes at a flow rate of 0.25 LPM. Seven days post gas treatment, this mouse was treated once again using the same protocol. Twelve days post the first NO treatment, this mouse was re-inoculated with 500,000 CT26 cells to the left flank. A third inoculation of cancer cells was performed 30 days post the second cell inoculation, using mouse breast cancer cells, was performed as well and the growth of a third inoculation of breast cancer cells, 4T1 cells. Forty-four days post challenge assay start (second inoculation), this mouse was sacrificed, and his spleen was harvested and preserved in RPMI-based media at 4° c. until processing of it. The spleen was processed into a sterile 35 mm culture dish containing 5 ml of RPMI-based media. Any extra connective tissues or fat was trimmed from the spleen. The flat end of a plunger was used to mince the spleen by crushing the spleen to release the splenocytes. A 70 μm strainer was primed by passing 1 ml of PBS through it and placed on a sterile 50 mL conical tube. The pellet was collected and transferred through the strainer via a 5 mL serological pipette. The strainer was washed with 3 mL of RPMI-based media. Tube will be centrifuged at 300×g for 10 minutes. […]

PC-3 cells = test: XTT viability of PC-3 cells after direct gas exposure in 96-well plate; assay type: cell-based
Protocol: (§1) In vitro systems: One system involves a direct exposure of cancer cells to gNO in 96-well plate. Gaseous NO at 150 ppm-50,000 ppm was delivered at 0.3 LPM for 10 seconds—3 minutes. In another system, cancer cells were exposed to gNO in a box made of acrylic glass. Gaseous NO at 10,000-50,000 ppm was delivered at 0.9 LPM for 10 seconds—15 minutes.
(§2) The exposure of the cancer cells to gNO was done after removing the cell culture medium.
(§3) Immediately after gas exposure, cell culture medium was added, and the cells were incubated at a 37° C. and 5% CO2 incubator over-night. To test cell viability, XTT assay and Annexin V-Propidium Iodide assays were performed, according to known protocols.
PC-3 cells were prepared in RPMI medium and suspended in four 96-well plates. The wells were exposed to the gas by a tubing that was directed at each well for 10, 60 or 180 seconds. The diameter of the gas tubing used was about 25% of the diameter of each well. Three wells were used for each gas and exposure time. The plates were placed in a 5% CO2, 37° C. incubator for 15-18 hours and the viability of the cells was tested by XTT assay.

LLC1 cells = test: XTT viability of LLC1 cells after gas exposure in chamber; assay type: cell-based; settings: 10,000 ppm-25,000 ppm gNO for 3-15 minutes
Protocol: as §1, §2, §3
The effect of continuous gaseous nitric oxide (gNO) at 10,000 ppm, 15,000 ppm, 20,000 ppm, or 25,000 ppm, compared to air (control), on the survival of LLC1 cancer cell line was tested. LLC1 cells were prepared in DMEM medium and suspended in 96-well plates. The plates were placed inside an approx. 2 liter exposure chamber. The plates were exposed to the gas by filling the chamber with gNO for 10 seconds, or 1, 3, 9 or 15 minutes. After exposure, the plates were placed in a 5% CO2, 37° C. incubator for an overnight incubation and the viability of the cells was tested by XTT assay.

4T1 cells [2] = test: XTT viability of 4T1 cells after direct gas exposure in 96-well plate; assay type: cell-based, mouse
Excerpt: Tumor celllines: The mouse colon carcinoma cell line, CT26WT, was cloned from CT26, an N-nitroso-N-methylurethane-induced, undifferentiated colon carcinoma cell line. The mouse mammary tumor cell line, 4T1, is a 6-thioguanine resistant cell line. When injected into BALB/c mice, 4T1 spontaneously produces highly metastatic tumors that can metastasize to the lung, liver, lymph nodes and brain while the primary tumor is growing in situ. […] Panc 02.03 is a pancreatic adenocarcinoma epithelial cell line derived in 1995 from a primary tumor removed from the head-of-the-pancreas of […] with pancreatic adenocarcinoma. CT26, 4T1 and Panc 02.03 cell lines were grown in RPMI based media (ATCC 30-2001) supplemented with fetal bovine serum and pen-strep (both from Biological Industries). The LLC1/LU2 cell line was grown in DMEM based media (ATCC 30-2002) supplemented with fetal bovine serum and pen-strep (Biological industries). The B16.F10 cell lines was grown in DMEM based media (ATCC 30-2002) supplemented with fetal bovine serum and pen-strep (Biologicalindustries).
as §1, §2, §3
The effect of continuous gaseous nitric oxide (gNO) at 150 ppm, 4,000 ppm, 10,000 ppm, or 50,000 ppm, compared to air (control), on the survival of 4T1 cancer cell line was tested. 4T1 cells were prepared in RPMI medium and suspended in six 96-well plates. […]

CT26 challenge tumor = test: gNO, tumor excision and CT26 re-challenge: tumor take and survival; assay type: in vivo, mice; settings: about 75 days
Protocol: CT26 tumor-bearing male mice were treated with 20,000 ppm and 50,000 ppm gNO intra-tumorally for 5 minutes. Fourteen days post gNO treatment, all tumors were excised. A week post surgery, all mice were re-challenged via a second inoculation of 5×10^5 CT26 cells, and tumor take and survival were monitored during about 75 days, as depicted in FIG. 21A.

[N]=O [gNO, nitric oxide]
growth of a third inoculation of breast cancer cells (4T1) (4T1 cells [1]): inhibited
viability of PC-3 cells (PC-3 cells; 4,000 ppm and 10,000 ppm gNO for 180 seconds): 43-48%
viability at 4000 ppm (PC-3 cells; Homo sapiens, PC-3, 1 min, 4,000 ppm, 10,000 ppm and 50,000 ppm gNO for 1 minute): 44 to 55%
viability at 4000 ppm (PC-3 cells; Homo sapiens, PC-3, 4,000 ppm, 10,000 ppm and 50,000 ppm gNO for 10 seconds): 56 to 72%
viability at 50000 ppm (PC-3 cells; Homo sapiens, PC-3, 50,000 ppm gNO for 180 seconds): ~17%
viability of LLC1 cells (LLC1 cells): less than 5%
4T1 cells remain viable (4T1 cells [2]; 4,000-10,000 ppm gNO for 1 minute): About 60%
viability of 4T1 cells (4T1 cells [2]; 10,000 or 50,000 ppm gNO for 180 seconds): 1-3%
4T1 cells remained viable (4T1 cells [2]; 10,000 ppm or 50,000 ppm gNO for 10 seconds): less than 80%
challenge tumor development (CT26 challenge tumor; 20,000 ppm and 50,000 ppm gNO 5 minutes, excision day 14, re-challenge a week post surgery): no tumor development
survival (CT26 challenge tumor; 50,000 ppm gNO 5 minutes, excision, re-challenge): 100%
